Tests used:
Format in all cases: in vivo
[1] = system: mice; test: phenylbenzoquinone test according to Siegmund (analgesic activity, contractions of the abdomen); settings: for ED50: Mus musculus, po, mice; for analgesic activity in the Siegmund test: in words
Description: (§1) The analgesic activity of the compounds of the present invention was studied by means of the tail-flick test according to D'Amour F. E. and Smith D. L., Journal of pharmacology and experimental therapeutics, 72, 74-79 (1941), the hot plate test according to Woolfe G. and MacDonald A. D., Journal of pharmacology and experimental therapeutics, 80, 300-307 (1944) and the phenylbenzoquinone test according to Siegmund E., Cadmus R. and Lu G, Proc. Soc. […]. Biol. Med. 95, 729-731 (1957).

[2] = system: mice; test: hot plate test according to Woolfe and MacDonald (analgesic activity, licking time); settings: Mus musculus, ip
Description: as §1

[3] = system: mice; test: tail-flick test according to D'Amour and Smith (analgesic activity, reaction time); settings: for ED50: Mus musculus, ip, mice
Description: The analgesic activity of the compounds of the present invention was studied by means of the tail-flick test according to D'Amour F. E. and Smith D. L., Journal of pharmacology and experimental therapeutics, 72, 74-79 (1941), the hot plate test according to Woolfe G. and MacDonald A. D., Journal of pharmacology and experimental therapeutics, 80, 300-307 (1944) and the phenylbenzoquinone test according to Siegmund E., Cadmus R. and Lu G, Proc. Soc. Exptle. Biol. Med. 95, 729-731 (1957).
By way of example, the following table lists the results of the analgesic effects observed in mice for several representative products of the invention:
Note: The mean effective dose (ED50) was calculated:
in the tailflick test from the percentage variations in the reaction time
(in seconds) by comparison with the control batch.

[4] = system: mice; test: four plates test according to Aron et al. (anxiolytic activity, number of shocks received); settings: for % number of shocks received: mice, N = 10; for anxiolytic activity in the 4 plates test: in words
Description: (§2) The anxiolytic activity was studied, for its part, by means of the four plates test according to Aron C., Simon P., Larousse C. and Boissier J. R., Neuropharmacology, 10, 459-469, (1971), the conflict test according to Vogel J. R., Beer B., Clody D. E., Physchopharmacol.

[5] = system: rats; test: Mac Millan punishment test, punishment operating conditioning (anxiolytic activity, number of punished responses); settings: for percentage variation in the number of punished responses: rats, N ≥ 9; for anxiolytic activity in the conflict test according to MacMillan: in words
Description: as §2, with “Physchopharmacol. 21, 1-7, (1971) and the punishment test according to Mac Millan D. E., J. Exp. Anal. Behav, 19, 133-145 (1973).” for “Physchopharmacol.”
PUNISHMENT OPERATING CONDITIONING (RATS)
PERCENTAGE VARIATION IN THE NUMBER
OF PUNISHED RESPONSES (N ≥ 9)
S = Significant modification

SMILES	ED50 [1] [mg/kg]	ED50 [2] [mg/kg]	ED50 [3] [mg/kg]	% number of shocks received ([4]; 2.5 mg/kg i.p.)	% number of shocks received ([4]; 5 mg/kg i.p.)	% number of shocks received ([4]; 10 mg/kg i.p.)	% number of shocks received ([4]; 25 mg/kg i.p.)	anxiolytic activity in the 4 plates test [4]	activity in the tail-flick test ([3]; 50 mg/kg i.p., in words)	percentage variation in the number of punished responses ([5]; 2.5 mg/kg i.p.)	percentage variation in the number of punished responses ([5]; 5 mg/kg i.p.)	percentage variation in the number of punished responses ([5]; 10 mg/kg i.p.)	percentage variation in the number of punished responses ([5]; 20 mg/kg i.p.) [%]	anxiolytic activity in the conflict test according to MacMillan [5]	analgesic activity in the Siegmund test [1]
FC(F)(F)c1cccc(N2CCN(CCCc3nnc4n3C[C@H]3CCCC[C@H]3C4)CC2)c1 (relative stereo) [Example 3, Cis-10{γ-N-[N'(metatrifluoromethylphenyl)piperazine]n-propyl}-3,3a,4,5,6,7,7a,8-octahydrotriazolo[4,3-b]isoquinoline]	16	19.8	> 50	+38%	+44%	+48%	18%	very significant anxiolytic activity							
Clc1cccc(N2CCN(CCc3nnc4n3[C@H]3CCCC[C@@H]3CC4)CC2)c1 (relative stereo) [Example 12]	25.7	25.3	30.7	+38%	+15%	+20%	+2%	very significant anxiolytic activity	active	-33.5%	-24%	-51.3%	-75		
FC(F)(F)c1cccc(N2CCN(CCc3nnc4n3C[C@H]3CCCC[C@H]3C4)CC2)c1 (relative stereo) [Example 16]	17	24.3	> 50	-12%	+2%	+32%	+5%	very significant anxiolytic activity		+5.4%	+42.2%	+125.9%	-60.7	very significant anxiolytic activity	
Clc1cccc(N2CCN(CCCc3nnc4n3C[C@H]3CCCC[C@H]3C4)CC2)c1 (relative stereo) [Example 40]	7.5	53.9	> 50												very significant analgesic activiy
Clc1cccc(N2CCN(CCCc3nnc4n3[C@H]3CCCC[C@H]3CC4)CC2)c1 (relative stereo) [Example 42]	11.4		> 50												
Clc1cccc(N2CCN(CCc3nnc4n3CC3CCCCC43)CC2)c1 (stereo not drawn) [Example 2, 9-{β-N'-[N-(metachlorophenyl)piperazine]ethyl}-[7H]-2b,3,4,5,6,6a-hexahydrotriazolo[3,4-a]cyclohexa(c)pyrrole]	8.7	> 50	> 50												very significant analgesic activiy
FC(F)(F)c1cccc(N2CCN(CCc3nnc4n3CC3CCCC43)CC2)c1 (centres unmarked) [Example 17a]	5.82	21.3	> 50	+18%	+26%	+35%	+61%	very significant anxiolytic activity		+47.8%	+33.6%	+42.6%	-70.3	very significant anxiolytic activity	
FC(F)(F)c1cccc(N2CCN(CCc3nnc4n3CC3CCCC43)CC2)c1 (centres unmarked) [Example 17b]				+15%	+34%	+53%	+27%	very significant anxiolytic activity							
FC(F)(F)c1cccc(N2CCN(CCc3nnc4n3CC3CCCCC43)CC2)c1 (centres unmarked) [Example 36]	4.3	25 to 50	> 50	-12%	-4%	-4%	+39%	very significant anxiolytic activity							very significant analgesic activiy
